Laboratory results published in US20250136568A1, “FUSED HETEROCYCLIC COMPOUNDS AS PI3KALPHA INHIBITORS” (Nanjing Zenshine Pharmaceuticals Co., Ltd., priority 2021, published 2025).
Like-named read-outs stand apart in the source and are kept apart here.

Tests used:
Format in all cases: cell-based
[1] = tested on: PI3Kα wide type cell line SK-BR-3; experiment: Cell Proliferation IC50 Assay (CellTiter-Glo), SK-BR-3; details: SK-BR-3 (PI3Kα wild type), 72 hours, CellTiter-Glo, read-out: IC50 (μM) SK-BR-3
Summary of the method: (§1)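 Read-out was CellTiter-Glo luminescence after 72 h of compound exposure at 37 °C, 5% CO2. Cells had been plated overnight in complete medium before the compound was added at a 200-fold final dilution. IC50 was derived from percent inhibition.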

[2] = tested on: PI3Kα H1047R mutation cell line MDA-MB-453; experiment: Cell Proliferation IC50 Assay (CellTiter-Glo), MDA-MB-453; details: Homo sapiens, read-out: IC50 (μM) MDA-MB-453
Excerpt: PI3Kα H1047R mutation cell line T-47D and MDA-MB-453, E545K mutation cell line MDA-MB-361 and PI3Kα wide type cell line SK-BR-3 were purchased from Cobioer Biotech (cat. no CBP60397, CBP60386, CBP60383 and CBP60413 respectively). The CellTiter-Glo Direct Cell Proliferation Assay Kit was purchased from Prornega (cat. No. G7573)
For cell proliferation assay in each cell line: • a. Prepare complete medium (R PMI 1640, DMEM or McCoys): Add FBS and appropriate additives according to the information sheet provided by the vendor. Mix gently. • b. Prepare single cell suspension and count the cell numbers and adjust cells to appropriate density. • c. Add 80 μL of cell suspension to 96-well opaque-walled clear bottom plates according to the planned plate layout and place the plates in the CO2 incubator overnight. • d. Prepare intermediate plate: 10 μl of diluted test compounds or staurosporine solution (200×) is added to a 96 deep well plate. Then 390 μl of culture medium without FBS is added to the respective wells. • e. Transfer 20 μL of the solutions from the above intermediate plate to the wells of the plate prepared containing 80 μL of the culture medium and cells. The total dilution is 200 folds. • f. The cells were then incubated at 5% CO2, 37° C. for 72 hours. • g. Equilibrate the plate and its contents to room temperature for approximately 30 minutes. • h. Add 100 μL of CellTiter-Glo reagent to the assay plate • i. Mix contents for 10 minutes on an orbital shaker to induce cell lysis. • j. Allow the plate to incubate at room temperature for 10 minutes to stabilize luminescent signal, • k. Paste the clear bottom with white back seal and record luminescence with Varioskan LUX plate reader.
Inhibition % and IC50 value were calculated by the formula described below: […]

[3] = tested on: PI3Kα H1047R mutation cell line T-47D; experiment: Cell Proliferation IC50 Assay (CellTiter-Glo), T-47D; details: T47D (H1047R), 72 hours, CellTiter-Glo, read-out: IC50 (μM) T47D
Summary of the method: as §1

[4] = MDA-MB-453 (H1047R), 72 hours, CellTiter-Glo

Cc1cc(C(C)Nc2ccccc2C(=O)O)c2oc(-c3ccc4nn(C)c(C)c4c3)cc(=O)c2c1 (stereo not shown) [Example 111, 2-((1-(2-(2,3-dimethyl-2H-indazol-5-yl)-6-methyl-4-oxo-4H-chromen-8-yl)ethyl)amino)benzoic acid] showed an IC50 ([1]; Homo sapiens) greater than 10 µM and an IC50 [2, 4] of 0.87 µM.

Cc1cc(C(C)Nc2ccccc2C(=O)O)c2oc(-c3ccc(C(=O)N4CCOCC4)cc3)c(C)c(=O)c2c1 (stereo not shown) [Example 129, 2-((1-(3,6-dimethyl-2-(4-(morpholine-4-carbonyl)phenyl)-4-oxo-4H-chromen-8-yl)ethyl)amino)benzoic acid] was tested, and the IC50 ([1]; Homo sapiens) was greater than 10 µM and the IC50 [2, 4] was 0.26 µM.

In the case of Cc1cc([C@H](C)Nc2ccccc2C(=O)O)c2oc(-c3ccc(N4CCOCC4)cc3)c(C)c(=O)c2c1 (single isomer, unassigned) [Example 53B], the IC50 ([1]; Homo sapiens) was greater than 10 µM and the IC50 [2, 4] was 2.34 µM.

Cc1cc(C(C)Nc2ccccc2C(=O)O)c2oc(C3CCC(c4ccccc4)CC3)c(C)c(=O)c2c1 (stereo not shown) [Example 130, 2-((1-(3,6-dimethyl-4-oxo-2-(4-phenylcyclohexyl)-411-chromen-8-yl)ethyl)amino)benzoic acid] gave an IC50 ([1]; Homo sapiens) greater than 10 µM and an IC50 [2, 4] greater than 10 µM.

Cc1cc(C(C)Nc2ccccc2C(=O)O)c2oc(-c3ccc4nn(C)cc4c3C)cc(=O)c2c1 (stereo not shown) [Example 62, 2-((1-(2-(2,4-dimethyl-2H-indazol-5-yl)-6-methyl-4-oxo-4H-chromen-8-yl)ethyl)amino)benzoic acid] was tested, and the IC50 ([1]; Homo sapiens) was greater than 10 µM and the IC50 [2, 4] was 0.47 µM.

With Cc1cc([C@@H](C)Nc2ccccc2C(=O)O)c2oc(-c3ccnc(C(=O)N(C)C)c3)c(C)c(=O)c2c1 [Example 134, (R)-2-((1-(2-(2-(dimethylcarbamoyl)pyridin-4-yl)-3,6-dimethyl-4-oxo-4H-chromen-8-yl)ethyl)amino)benzoic acid] the IC50 ([1]; Homo sapiens) was greater than 10 µM and the IC50 [2, 4] was 0.56 µM.

Cc1cc(C(C)Nc2ccccc2C(=O)O)c2oc(-c3ccc4cnn(C)c4c3)cc(=O)c2c1 (stereo not shown) [Example 52, 2-((1-(6-methyl-2-(1-methyl-1H-indazol-6-yl)-4-oxo-4H-chromen-8-yl)ethyl)amino)benzoic acid] gave an IC50 ([1]; Homo sapiens) greater than 10 µM and an IC50 [2, 4] of 0.78 µM.

In the case of Cc1cc(C(C)Nc2ccccc2C(=O)O)c2oc(-c3ccc(N4CCN(C)CC4)cc3)c(C)c(=O)c2c1 (stereo not shown) [Example 90, 2-((1-(3,6-dimethyl-2-(4-(4-methylpiperazin-1-yl)phenyl)-4-oxo-4H-chromen-8-yl)ethyl)amino)benzoic acid], the IC50 ([1]; Homo sapiens) was greater than 10 µM and the IC50 [2, 4] was 0.09 µM.

With Cc1cc(C(C)Nc2ccccc2C(=O)O)c2oc(C3CCN(c4ccccn4)CC3)c(C)c(=O)c2c1 (stereo not shown) [Example 124, 2-((1-(3,6-dimethyl-4-oxo-2-(1-(pyridin-2-yl)piperidin-4-yl)-4H-chromen-8-yl)ethyl)amino)benzoic acid] the IC50 ([1]; Homo sapiens) was greater than 10 µM and the IC50 ([2]; MDA-MB-453, 72 h) was 0.5 µM.

Cc1cc(C(C)Nc2ccccc2C(=O)O)c2oc(-c3cccc4c3CN(C)C4=O)cc(=O)c2c1 (stereo not shown) [Example 24, 2-((1-(6-methyl-2-(2-methyl-1-oxoisoindolin-4-yl)-4-oxo-4H-chromen-8-yl)ethyl)amino)benzoic acid] gave an IC50 ([1]; Homo sapiens) greater than 10 µM and an IC50 [2, 4] of 4.07 µM.

In the case of Cc1cc(C(C)Nc2ccccc2C(=O)O)c2oc(-c3ccc4c(c3)CN(C3COC3)C4=O)cc(=O)c2c1 (stereo not shown) [Example 45, 2-((1-(6-methyl-2-(2-(oxetan-3-yl)-1-oxoisoindolin-5-yl)-4-oxo-411-chromen-8-yl)ethyl)amino)benzoic acid], the IC50 ([1]; Homo sapiens) was greater than 10 µM and the IC50 [2, 4] was 0.97 µM.

Cc1cc(C(C)Nc2ccccc2C(=O)O)c2oc(C3CCN(c4ccncc4)CC3)c(C)c(=O)c2c1 (stereo not shown) [Example 126, 2-((1-(3,6-dimethyl-4-oxo-2-(1-(pyridin-4-yl)piperidin-4-yl)-4H-chromen-8-yl)ethyl)amino)benzoic acid] was tested, and the IC50 ([1]; Homo sapiens) was greater than 10 µM and the IC50 [2, 4] was 2.46 µM.

Cc1cc(C(C)Nc2ccccc2C(=O)O)c2oc(-c3ccc4cn(C)nc4c3)cc(=O)c2c1 (stereo not shown) [Example 51, 2-((1-(6-methyl-2-(2-methyl-211-indazol-6-yl)-4-oxo-4H-chromen-8-yl)ethyl)amino)benzoic acid] gave an IC50 ([1]; Homo sapiens) greater than 10 µM and an IC50 [2, 4] of 2.48 µM.

In the case of Cc1cc(C(C)Nc2ccccc2C(=O)O)c2oc(-c3ccc4c(=O)n(C)ncc4c3)cc(=O)c2c1 (stereo not shown) [Example 122, 2-((1-(6-methyl-2-(2-methyl-1-oxo-1,2-dihydrophthalazin-6-yl)-4-oxo-4H-chromen-8-yl)ethyl)amino)benzoic acid], the IC50 ([1]; Homo sapiens) was greater than 10 µM and the IC50 [2, 4] was 0.56 µM.

With Cc1cc(C(C)Nc2ccccc2C(=O)O)c2oc(-c3ccc4c(c3)CCN(C)C4=O)cc(=O)c2c1 (stereo not shown) [Example 47, 2-((1-(6-methyl-2-(2-methyl-1-oxo-1,2,3,4-tetrahydroisoquinolin-6-yl)-4-oxo-4H-chromen-8-yl)ethyl)amino)benzoic acid] the IC50 ([1]; Homo sapiens) was greater than 10 µM and the IC50 [2, 4] was 0.24 µM.

With Cc1cc(C(C)Nc2ccccc2C(=O)O)c2oc(-c3ccc4ncn(C)c4c3)cc(=O)c2c1 (stereo not shown) [Example 60, 2-((1-(6-methyl-2-(1-methyl-1H-benzo[d]imidazol-6-yl)-4-oxo-4H-chromen-8-yl)ethyl)amino)benzoic acid] the IC50 ([1]; Homo sapiens) was greater than 10 µM and the IC50 [2, 4] was 6 µM.

Work on Cc1cc(C(C)Nc2ccccc2C(=O)O)c2oc(-c3ccc4c(=O)n(C)ccc4c3)cc(=O)c2c1 (stereo not shown) [Example 120, 2-((1-(6-methyl-2-(2-methyl-1-oxo-1,2-dihydroisoquinolin-6-yl)-4-oxo-4H-chromen-8-yl)ethyl)amino)benzoic acid] yielded an IC50 ([1]; Homo sapiens) greater than 10 µM and an IC50 [2, 4] of 1.18 µM.

With Cc1cc(C(C)Nc2ccccc2C(=O)O)c2oc(-c3ccc(N4CCOCC4=O)cc3)cc(=O)c2c1 (stereo not shown) [Example 64, 2-((1-(6-methyl-4-oxo-2-(4-(3-oxomorpholino)phenyl)-4H-chromen-8-yl)ethyl)amino)benzoic acid] the IC50 ([1]; Homo sapiens) was greater than 10 µM and the IC50 [2, 4] was 1.9 µM.

With Cc1cc(C(C)Nc2ccccc2C(=O)O)c2oc(-c3ccc4c(c3)CN(Cc3ccccc3)C4=O)cc(=O)c2c1 (stereo not shown) [Example 46, 2-((1-(2-(2-benzyl-1-oxoisoindolin-5-yl)-6-methyl-4-oxo-4H-chromen-8-yl)ethyl)amino)benzoic acid] the IC50 ([1]; Homo sapiens) was greater than 10 µM and the IC50 [2, 4] was 0.42 µM.

In the case of Cc1cc(C(C)Nc2ccccc2C(=O)O)c2oc(-c3ccc4nn(C)nc4c3)cc(=O)c2c1 (stereo not shown) [Example 69, 2-((1-(6-methyl-2-(2-methyl-2H-benzo[d][1,2,3]triazol-5-yl)-4-oxo-4H-chromen-8-yl)ethyl)amino)benzoic acid], the IC50 ([1]; Homo sapiens) was greater than 10 µM and the IC50 [2, 4] was 1.06 µM.

In the case of Cc1cc([C@@H](C)Nc2ccc(Cl)nc2C(=O)O)c2oc(-c3ccc(CN4CCN(C)CC4)cc3)c(C)c(=O)c2c1 [Example 189, (R)-6-chloro-3-((1-(3,6-dimethyl-2-(4-((4-methylpiperazin-1-yl)methyl)phenyl)-4-oxo-4H-chromen-8-yl)ethyl)amino)picolinic acid], the IC50 ([1]; Homo sapiens) was greater than 10 µM and the IC50 ([3]; Homo sapiens, T47D, 72 h) was 0.11 µM.

With Cc1cc([C@@H](C)Nc2ccccc2C(=O)O)c2oc(-c3ccc(OCC4CCCN4C)cc3)c(C)c(=O)c2c1 (single isomer, unassigned) [Example 172B] the IC50 [1] was greater than 10 µM and the IC50 [3] was 0.063 µM.

Work on Cc1cc(C(C)Nc2ccccc2C(=O)O)c2oc(C3CCN(C(C)C(F)(F)F)CC3)cc(=O)c2c1 (stereo not shown) [Example 16, 2-((1-(6-methyl-4-oxo-2-(1-(1,1,1-trifluoropropan-2-yl)piperidin-4-yl)-4H-chromen-8-yl)ethyl)amino)benzoic acid] yielded an IC50 ([1]; Homo sapiens) greater than 10 µM and an IC50 ([3]; Homo sapiens, T47D, 72 h) of 2.56 µM.
